From publication PMC12203428, “Discovery of Clonixeril as a Sub-Femtomolar Modulator of the Human STING Receptor” (ACS Central Science, 2025)

Experiments:
[1] = tested on: hSTING WT pathway (THP1 Dual KI-hSTING-R232 cells, IRF3 luciferase reporter); test: THP-1 IRF3 luciferase inhibition assay with diABZI3 as activator; format: cell-based, human
From the text: To validate our initial observations that CXL has extraordinary potency for a small molecule antagonist, we extended our THP-1 cell luciferase reporter experiment by using diABZI3 as an agonist and using BBCl-amidine (a previously reported STING antagonist) as an antagonist control. , Furthermore, because the results were so unprecedented, we conducted these experiments in a different laboratory (U. Mass Chan. vs Univ. So. FL) and with different individuals performing the experiments.
The cells were grown in RPMI 1640, 2 mM L-glutamine, 25 mM HEPES, 10% heat-inactivated fetal bovine serum, 100 μg/mL Normocin, and Pen-Strep (100 U/mL–100 μg/ mL). For selection, the cells were passaged with and without the addition of antibiotics (10 μg/mL Blasticidin and 100 μg/mL Zeocin) to the growth medium every other passage. […] The cells were counted in a cell counter to obtain a cell density of 1 × 10^6 cells/mL of the test media. […] QUANTI-Luc (InvivoGen) reagent was then diluted in 30 mL of water, 75 μL was added to each well, and luminescence was read immediately (PerkinElmer Envision 2105). The data were normalized to the DMSO only controls (without diABZI3 or 2′,3′-cGAMP), and percentage activation was calculated based on the diABZI3 or 2′,3′-cGAMP only control. […]

[2] = tested on: hSTING oligomerization in HEK293S cells; test: Clear native PAGE of hSTING oligomerization in HEK293S cells; format: cell-based, human; settings: CXL 1 h, then 100 nM diABZI3 2 h
Procedure: To determine whether the results we observed in the DLS experiments could be recapitulated in cellulo, where full-length hSTING is present, we used HEK293T cells transfected with WT hSTING (referred to herein as HEK293S cells) to perform hSTING clear native PAGE experiments. […] Thus, HEK293S cells were harvested following treatment with 100 nM diABZI3 for 2 h, following a 1 h treatment of varying concentrations of CXL.
Invitrogen NativePAGE Sample Prep Kit Catalog number: BN2008, Invitrogen NativePAGE Running Buffer Kit Catalog number: BN2007 and Invitrogen NativePAGE 4 to 16%, Bis-Tris, 1.0 mm, Mini Protein Gels, 10 wells, (Cat. # BN1002BOX). Cells were harvested and CXL was added at varying concentrations for 1 h and followed by 2 h of diABZI3 at 100 nM. To the mammalian cells harvested in 1 mL cell culture, add 0.2 mL lysis buffer containing 10 mM HEPES, pH 7.5,150 mM NaCl, 5% glycerol, protease inhibitor cocktail, and 0.025% digitonin. Cells were lysed by sonicating for two rounds of 15 s each while cooling the sample on ice. Centrifuge the lysate at 20,000g for 10 min at 4 °C. Aliquot the supernatant into microcentrifuge tubes. To prepare the sample for loading a total volume of 20 μL NativePAGE including Sample Buffer (4×) 5 μLSTING supernatant, 14.5 μL and Ponceau S-dye: 0.5 μL. 1X NativePAGE Anode Buffer: Add 30 mL of 20X NativePAGE Running Buffer to 570 mL of deionized water. […]

SUMO-hSTING CTD = SUMO-hSTING CTD (Homo sapiens, UniProt Q86WV6, H232R); test: Isothermal titration calorimetry; format: binding; set-up: human STING (amino acid 155–343) was synthesized and subcloned into pET28a vector; made in house; host or cells: E. coli BL21(DE3)
Chain of SUMO-hSTING CTD (Q86WV6 155-343 H232R): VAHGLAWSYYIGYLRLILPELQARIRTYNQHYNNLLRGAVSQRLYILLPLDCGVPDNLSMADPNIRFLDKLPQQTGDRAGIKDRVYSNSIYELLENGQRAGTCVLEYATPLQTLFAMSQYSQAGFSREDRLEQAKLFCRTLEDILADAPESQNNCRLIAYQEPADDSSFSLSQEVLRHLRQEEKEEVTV
From the text: In order to further explore the interaction between CXL and hSTING CTD, we employed Isothermal calorimetry (ITC) to measure the heat evolved accompanying CXL’s effect on SUMO-hSTING^WT CTD. […] In Figure A, we show the ITC data we obtained. […]. […] In Figure B, we also find that the binding isotherm is far from steady state or equilibrium, and thus, we could not obtain reliable thermodynamic parameters. Nonetheless, a significant amount of heat was released in the process of CXL interacting with the hSTING CTD. On the other hand, we were most interested in ITC measurements taken at femtomolar concentrations, given the biophysical experiments and in cellulo studies already described. Initial experiments treating the hSTING CTD with femtomolar concentrations of CXL were unsuccessful, likely due to the insensitivity of the instrument. […]. MicroCal ITC200 instrument (Malvern Pananalytical) was used to assess STING and CXL interactions. Both recombinantly purified STING domains (residues 155–343) containing a SUMO tag and CXL were buffer-exchanged and made in the same buffer composition, respectively, to avoid buffer mismatch. The same buffer cocktail was used in all ITC experiments, containing 25 mM HEPES (pH, 7.4), 150 mM NaCl, 5% glycerol, 0.5 mM TCEP, and 5% DMSO. STING protein from −80 °C aliquots was spun down at 12,000 RPM for 5–10 min before each run to remove any aggregates, diluted into the ITC buffer above (either as 40 μM STING alone or as 40 μM STING plus 20 μM 2,3-cGAMP), and loaded into the cell. CXL at various concentrations for different experiments was loaded into the syringe (Hamilton). For the control and reference, an ITC buffer devoid of CXL was used. ITC experiments were conducted at 25 °C using an initial 0.4 μL injection and 19 subsequent injections of 2 μL each at 150 s intervals. Heat of dilution (differential power) of the 19 injections resulting from the binding event was fitted into the nonlinear least-squares equation incorporated in the MicroCal ITC200 analysis software. The K D and other thermodynamic parameters were derived from curve fitting using MicroCal software.

Heat released per injection (SUMO-hSTING CTD; 400 μM clonixeril + 20 μM 2′,3′-cGAMP, reviewer's reading of Fig 6C): 13 kcal/mol | Heat evolution (SUMO-hSTING CTD; 1.5 fM CXL into 40 μM SUMO-hSTING CTD + 20 μM 2′,3′-cGAMP): significant evolution of heat | Heat released per injection (SUMO-hSTING CTD; 1.5 fM clonixeril into 40 μM hSTING CTD + 20 μM 2′,3′-cGAMP, first 15 injections): -7 to -2 kcal/mol
Compound: Cc1c(Cl)cccc1Nc1ncccc1C(=O)OCC(O)CO (stereo not shown) [CXL, clonixeril]
Response to diABZI3 with CXL 100 nM to 100 aM ([1]; 50 nM diABZI3): inverse dose response | Effect of higher concentrations of CXL on diABZI3 signal ([1]; 50 nM diABZI3, Figure 2C): enhancement of the diABZI3 signal | Effect on hSTING oligomerization [2]: reduces hSTING oligomerization at concentrations down to attomolar levels | Heat produced (SUMO-hSTING CTD; 400 μM CXL into 40 μM hSTING CTD): essentially the same amount of heat as c-diGMP
